We go through five compounds from publication PMC10135050, “Neutralizing Carbapenem Resistance by Co-Administering Meropenem with Novel β-Lactam-Metallo-β-Lactamase Inhibitors” (Antibiotics, 2023).

Molecules are shown by their SMILES.

On the set-up of series [1]: method as in PMID 32179522. To be noted: cited from earlier work.
For series [2], the target named is T1, Recombinant human glyoxylase II (Glo2) (Homo sapiens, UniProt Q16775).
T1 construct: purchased BioVision Inc., Waltham, MA, USA
Nature of the series: Non-specific binding to zinc in non-MBLs, glyoxylase II activity. In kind it is biochemical. To be noted: 50–500 µM. The source says: Metal chelators are known to suffer from off-target specificity and as a result have been criticized as potential MBLIs in vivo [44].
The methodology has been previously described. EDTA (purchased from Merck KGaA, Darmstadt, Germany) was included as a positive control.

For series [3] the following is noted: in vivo; cited from earlier work.
On the set-up of series [4]: method as in PMID 26849010, PMID 32903882. The conditions noted are these: cited from earlier work.

Turning to `COC(=O)C(CC(=O)N[C@@H]1C(=O)N2C(C(=O)O)=C(C[n+]3ccccc3)CS[C@H]12)N1CCN(CC(=O)O)CCN(CC(=O)O)CC1` (some centres unmarked) [BP1], the “Decrease in the bacterial load in vivo” value in series [1] is “approximately 3 log10 units”.
For the compound `O=C(O)CN(CCN(CC(=O)O)CC(=O)O)CC(=O)O` [EDTA, reference compound], the “Glyoxylase II activity” value in series [2] is “significantly reduced”.
In the case of `O=C(O)CN1CCN(CC(=O)O)CCN(CC(=O)O)CC1` [NOTA], in series [3], the Bioavailability result was “poor bioavailability”.
Take `c1ccc(CN(CCN(Cc2ccccn2)Cc2ccccn2)Cc2ccccn2)nc1` [TPEN, N,N,N′,N′-Tetrakis (2-Pyridylmethyl) Ethylenediamine]: the Cytotoxicity entry in series [4] was “cytotoxicity”.
Regarding `CN(C[C@H](O)[C@@H](O)[C@H](O)[C@H](O)CO)C(=O)c1ccc(CN(Cc2ccccn2)Cc2ccccn2)nc1` [ZN148], the “Decrease in the bacterial load in vivo” value in series [1] is reported as “approximately 3 log10 units”.
